Experiments:
Format in all cases: cell-based, human
[1] = tested on: bioprinted breast cancer constructs (MCF7/HUVEC cancer node surrounded by NHMF, HUVEC, SPA stroma); experiment: Construct viability after drug treatment by alamarBlue assay; settings: 10 μM compound for 3 days, followed by 100 μM compound for 24 hours; FIG. 14
Description: The stromal compartment of the constructs was comprised of 65% NHMF, 25% HUVEC, and 10% SPA (partially pre-differentiated). The cancer compartment of the constructs was comprised of 75% MCF7, 25% HUVEC. For each compartment, cells were mixed together at the indicated ratio and resuspended in Novogel® 3.0 at a concentration of 150 million cells/ml. Constructs were printed as 3 layered structures with a dimension of 3 mm×3 mm×0.75 mm. Immediately following bioprinting, constructs were stabilized via crosslinking After 2 minutes, the calcium crosslinking solution was aspirated and replaced with culture media. After 2 days in culture, constructs were treated overnight with enzyme dissolved in culture media to remove the Novogel® 3.0. Constructs were then incubated for up to 9 additional days. All compounds were acquired from Sigma-Aldrich and were dissolved in DMSO. Compounds were diluted to a final concentration of 10 μM or 100 μM in media. The final DMSO concentration was 0.1%, which was used for vehicle treatment. Constructs were assessed for metabolic activity by alamarBlue assay (Life Technologies, Carlsbad, Calif.) or CellTiter Glo assay (Promega, Madison, Wis.). Constructs were treated for 24 hours for labeled compound uptake studies, or for 4 days for assessment of metabolic activity.

[2] = tested on: bioprinted breast cancer tumor models (cancer and stromal compartments); experiment: Apoptosis by TUNEL staining with CK8 and TE7 markers in bioprinted breast cancer tumor model; settings: 100 μM cisplatin for 4 days; FIG. 22
Description: (§1) The breast cancer tumor models included a nodule of human breast cancer cells surrounded by a physiologically-relevant stromal layer, which included human adipocytes differentiated from human mesenchymal stem cells, human mammary fibroblasts, and human endothelial cells. The adipocytes were derived from mesenchymal stem cells which were isolated an exposed to an adipocyte differentiation signal prior to preparation of the bio-ink and bioprinting.
Referring to FIG. 22, bioprinted tissues were treated with vehicle (A-C) or 100 μM cisplatin (D-F) for 4 days. The first (A and D) and second (B and E) columns depict tissues assessed for apoptosis by TUNEL staining (green) and markers for cancer cells (CK8, red). The last ([…]) column depicts tissues assessed for apoptosis by TUNEL staining (green) and markers for fibroblasts (TE7, red).

[3] = tested on: breast cancer cells in two-dimensional cell culture and bioprinted breast cancer tumor models; experiment: Tamoxifen drug response by ATP luciferase assay, two-dimensional breast cancer cell culture compared to bioprinted breast cancer tumor models; settings: 10 μM tamoxifen for 48 hours; FIG. 20
Description: as §1
The breast cancer tumor models were exposed to chemotherapy compounds in order to access drug response. Referring to FIG. 20, breast cancer cells grown in two-dimensional cell culture (A) and the bioprinted breast cancer tumor models (B) were treated with media alone, DMSO, or 10 μM tamoxifen for 48 hours and assessed for viability by ATP luciferase assay. For each graph, * indicates p<0.05 for treatment compared to control.

| Compound | construct viability relative to media or vehicle controls (alamarBlue) [1] | apoptosis by TUNEL staining, stromal compartment vs cancer compartment [2] | susceptibility to tamoxifen-induced toxicity, two-dimensional cancer cells vs three-dimensional bioprinted constructs (viability by ATP luciferase assay) [3] |
| --- | --- | --- | --- |
| CC(=O)O[C@H]1C(=O)[C@@]2(C)[C@H]([C@H](OC(=O)c3ccccc3)[C@]3(O)C[C@H](OC(=O)[C@H](O)[C@@H](NC(=O)c4ccccc4)c4ccccc4)C(C)=C1C3(C)C)[C@]1(OC(C)=O)CO[C@@H]1C[C@@H]2O [paclitaxel] | decreased construct viability | – | – |
| N.N.[Cl][Pt][Cl] [Cisplatin, cisplatin] | decreased construct viability | induces greater apoptosis in the stromal compartment of bioprinted tissues than in the cancer compartment | – |
| CC/C(=C(\c1ccccc1)c1ccc(OCCN(C)C)cc1)c1ccccc1 [tamoxifen] | – | – | more susceptible to tamoxifen-induced toxicity than cells incorporated into three-dimensional bioprinted constructs |
